Publication PMC9482650, “Quantitative fragmentomics allow affinity mapping of interactomes” (Nature Communications, 2022)
Where two headings read alike, the source gives them in different places. Ends that are not written are not given here.

How the values were obtained:
Assay in all cases: Holdup assay
Format in all cases: binding
DLG1_2 PDZ = DLG1_2 PDZ (Homo sapiens, UniProt Q12959)
LIN7C PDZ = target: T1, LIN7C PDZ (Homo sapiens, UniProt Q9NUP9)
T1 sequence (Q9NUP9 93-175 limits assumed): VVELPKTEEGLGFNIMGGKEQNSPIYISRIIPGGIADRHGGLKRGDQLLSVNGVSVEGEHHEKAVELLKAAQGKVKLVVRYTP

DLG3_3 PDZ = target: T2, DLG3_3 PDZ (Homo sapiens, UniProt Q92796)
T2 sequence (Q92796 379-465 limits assumed): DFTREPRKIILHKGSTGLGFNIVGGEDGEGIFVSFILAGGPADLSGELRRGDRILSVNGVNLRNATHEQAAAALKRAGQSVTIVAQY

DLG4_2 PDZ = DLG4_2 PDZ (Homo sapiens, UniProt P78352)
SCRIB2 PDZ = target: T3, SCRIB2 PDZ (Homo sapiens, UniProt Q14160)
T3 sequence (Q14160 862-950 limits assumed): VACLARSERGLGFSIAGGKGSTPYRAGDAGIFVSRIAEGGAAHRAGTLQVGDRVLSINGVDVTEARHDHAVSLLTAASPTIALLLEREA

TX1BP3 PDZ = target: T4, TX1BP3 PDZ (Homo sapiens, UniProt O14907)
T4 sequence (O14907 15-112 limits assumed): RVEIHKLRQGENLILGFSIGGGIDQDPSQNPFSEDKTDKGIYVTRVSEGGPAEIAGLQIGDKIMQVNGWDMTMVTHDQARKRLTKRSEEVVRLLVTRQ

MAGI2_5 PDZ = MAGI2_5 PDZ (Homo sapiens, UniProt Q86UL8)
ARHGEF11 PDZ = target: T5, ARHGEF11 PDZ (Homo sapiens, UniProt O15085)
T5 sequence (O15085 47-126 limits assumed): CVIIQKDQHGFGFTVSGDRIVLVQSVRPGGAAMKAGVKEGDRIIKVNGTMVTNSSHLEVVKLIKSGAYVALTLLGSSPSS

DLG3_2 PDZ = target: T6, DLG3_2 PDZ (Homo sapiens, UniProt Q92796)
T6 sequence (Q92796 226-311 limits assumed): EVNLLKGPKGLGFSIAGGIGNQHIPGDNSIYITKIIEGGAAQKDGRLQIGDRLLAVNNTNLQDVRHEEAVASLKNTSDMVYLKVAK

ARHGEF12 PDZ = target: T7, ARHGEF12 PDZ (Homo sapiens, UniProt Q9NZN5)
T7 sequence (Q9NZN5 72-151 limits assumed): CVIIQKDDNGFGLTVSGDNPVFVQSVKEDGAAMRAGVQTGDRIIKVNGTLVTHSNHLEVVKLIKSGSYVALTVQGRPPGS

MAGI2_4 PDZ = MAGI2_4 PDZ (Homo sapiens, UniProt Q86UL8)
SYNJ2BP PDZ = target: T8, SYNJ2BP PDZ (Homo sapiens, UniProt P57105)
T8 sequence (P57105 13-100 limits assumed): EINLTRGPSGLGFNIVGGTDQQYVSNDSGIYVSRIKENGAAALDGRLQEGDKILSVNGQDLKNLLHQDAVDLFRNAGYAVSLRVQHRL

SNTA1 PDZ = target: T9, SNTA1 PDZ (Homo sapiens, UniProt Q13424)
T9 sequence (Q13424 87-170 limits assumed): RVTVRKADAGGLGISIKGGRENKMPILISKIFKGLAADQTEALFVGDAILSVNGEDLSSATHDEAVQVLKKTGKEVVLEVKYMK

SNTG2 PDZ = target: T10, SNTG2 PDZ (Homo sapiens, UniProt Q9NY99)
T10 sequence (Q9NY99 73-156 limits assumed): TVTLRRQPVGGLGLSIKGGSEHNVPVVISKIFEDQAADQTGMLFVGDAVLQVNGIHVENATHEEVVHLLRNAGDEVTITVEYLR

DLG1_3 PDZ = DLG1_3 PDZ (Homo sapiens, UniProt Q12959)
DLG3_1 PDZ = target: T11, DLG3_1 PDZ (Homo sapiens, UniProt Q92796)
T11 sequence (Q92796 130-217 limits assumed): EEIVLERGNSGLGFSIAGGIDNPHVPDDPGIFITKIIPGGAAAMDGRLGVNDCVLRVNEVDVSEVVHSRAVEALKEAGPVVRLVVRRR

LAP2 PDZ = LAP2 PDZ (Homo sapiens, UniProt Q96RT1)
SNTG1 PDZ = target: T12, SNTG1 PDZ (Homo sapiens, UniProt Q9NSN8)
T12 sequence (Q9NSN8 57-140 limits assumed): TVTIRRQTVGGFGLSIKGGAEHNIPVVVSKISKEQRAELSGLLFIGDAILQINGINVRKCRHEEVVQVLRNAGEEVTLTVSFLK

DLG1_1 PDZ = DLG1_1 PDZ (Homo sapiens, UniProt Q12959)
MAGI2_2 PDZ = MAGI2_2 PDZ (Homo sapiens, UniProt Q86UL8)
SCRIB_1 PDZ = SCRIB_1 PDZ (Homo sapiens, UniProt Q14160)
SNX27 PDZ = SNX27 PDZ (Homo sapiens, UniProt Q96L92); conditions: composite holdup affinity; 0.00=below quantification threshold; read-out: COMP pKd (converted)
PTPN3 PDZ = target: T13, PTPN3 PDZ (Homo sapiens, UniProt P26045)
T13 sequence (P26045 510-582 limits assumed): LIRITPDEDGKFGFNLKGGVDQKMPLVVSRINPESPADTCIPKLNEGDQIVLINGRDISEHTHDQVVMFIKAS

NOS1 PDZ = NOS1 PDZ (Homo sapiens, UniProt P29475)
NHERF3_1 PDZ = target: T14, NHERF3_1 PDZ (Homo sapiens, UniProt Q5T2W1)
T14 sequence (Q5T2W1 9-90 limits assumed): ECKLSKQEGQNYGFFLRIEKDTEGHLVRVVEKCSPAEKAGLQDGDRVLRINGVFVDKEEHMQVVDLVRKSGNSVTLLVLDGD

DLG2_2 PDZ = DLG2_2 PDZ (Homo sapiens, UniProt Q15700)
[1] = composite holdup affinity, 0.00=below quantification threshold, read-out: COMP pKd (converted)

Chain of NOS1 PDZ (P29475 17-99 limits assumed): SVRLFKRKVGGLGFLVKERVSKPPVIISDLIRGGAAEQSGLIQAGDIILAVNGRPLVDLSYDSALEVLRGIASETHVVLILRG
Chain of DLG2_2 PDZ (Q15700 193-279 limits assumed): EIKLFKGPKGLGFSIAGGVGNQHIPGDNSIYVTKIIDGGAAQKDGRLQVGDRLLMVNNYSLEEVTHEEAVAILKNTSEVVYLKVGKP
Chain of DLG4_2 PDZ (P78352 160-246 limits assumed): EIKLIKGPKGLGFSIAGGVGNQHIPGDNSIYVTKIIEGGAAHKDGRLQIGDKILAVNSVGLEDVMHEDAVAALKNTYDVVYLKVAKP
Chain of MAGI2_5 PDZ (Q86UL8 920-1010 limits assumed): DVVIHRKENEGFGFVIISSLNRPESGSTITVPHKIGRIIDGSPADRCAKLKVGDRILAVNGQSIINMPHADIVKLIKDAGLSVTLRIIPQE
Chain of MAGI2_2 PDZ (Q86UL8 426-510 limits assumed): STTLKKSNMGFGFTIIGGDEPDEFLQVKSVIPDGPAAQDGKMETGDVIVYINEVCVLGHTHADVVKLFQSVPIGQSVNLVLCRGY
Chain of MAGI2_4 PDZ (Q86UL8 778-860 limits assumed): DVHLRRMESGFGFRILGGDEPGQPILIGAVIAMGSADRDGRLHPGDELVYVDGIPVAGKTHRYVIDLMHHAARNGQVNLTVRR
Chain of LAP2 PDZ (Q96RT1 1321-1410 limits assumed): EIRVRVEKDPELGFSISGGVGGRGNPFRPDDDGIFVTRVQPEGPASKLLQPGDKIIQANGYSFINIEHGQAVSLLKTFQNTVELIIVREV
Chain of SCRIB_1 PDZ (Q14160 728-815 limits assumed): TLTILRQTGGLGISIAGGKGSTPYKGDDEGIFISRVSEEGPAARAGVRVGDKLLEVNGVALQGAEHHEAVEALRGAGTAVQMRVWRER

`CC(C)C[C@H](NC(=O)[C@@H](N)CCCNC(=N)N)C(=O)N[C@@H](CCC(N)=O)C(=O)N[C@@H](CCCNC(=N)N)C(=O)N[C@@H](CCCNC(=N)N)C(=O)N[C@@H](CCCNC(=N)N)C(=O)N[C@@H](CCC(=O)O)C(=O)N[C@H](C(=O)N[C@@H](CCC(N)=O)C(=O)N[C@H](C(=O)O)C(C)C)[C@@H](C)O` [HPV18-E6] showed a Kd (DLG1_2 PDZ) of 1.66 µM, a Kd (LIN7C PDZ) of 67.6 µM and a Kd (DLG3_3 PDZ) of 3.63 µM. For the same compound, the Kd (DLG4_2 PDZ) was 3.47 µM, the Kd (SCRIB2 PDZ) was 36.3 µM and the Kd (TX1BP3 PDZ) was 21.9 µM. It also gave a Kd (MAGI2_5 PDZ) of 166 µM, a Kd (ARHGEF11 PDZ) of 219 µM and a Kd (DLG3_2 PDZ) of 3.47 µM. For the same compound, the Kd (ARHGEF12 PDZ) was 123 µM, the Kd (MAGI2_4 PDZ) was 52.5 µM and the Kd (SYNJ2BP PDZ) was 4.47 µM. The Kd (SNTA1 PDZ) was 20 µM, the Kd (SNTG2 PDZ) was 93.3 µM and the Kd (DLG1_3 PDZ) was 9.55 µM. It also gave a Kd (DLG3_1 PDZ) of 45.7 µM, a Kd (LAP2 PDZ) of 245 µM and a Kd (SNTG1 PDZ) of 117 µM. The Kd (DLG1_1 PDZ) was 5.5 µM, the Kd (MAGI2_2 PDZ) was 6.92 µM and the Kd (SCRIB_1 PDZ) was 55 µM. It also gave a Kd (SNX27 PDZ) of 28.2 µM, a Kd (PTPN3 PDZ) of 32.4 µM and a Kd (NOS1 PDZ) of 195 µM. For the same compound, the Kd (NHERF3_1 PDZ) was 89.1 µM and the Kd (DLG2_2 PDZ) was 6.46 µM.
SKPTRRETEV [HPV35-E6] was tested, and the Kd (DLG1_2 PDZ; [1]) was 2.29 µM, the Kd (LIN7C PDZ; [1]) was 174 µM and the Kd (DLG3_3 PDZ; [1]) was 6.61 µM. For the same compound, the Kd (DLG4_2 PDZ; [1]) was 3.09 µM, the Kd (SCRIB2 PDZ; [1]) was 20 µM and the Kd (TX1BP3 PDZ; [1]) was 11.7 µM. For the same compound, the Kd (MAGI2_5 PDZ; [1]) was 66.1 µM, the Kd (ARHGEF11 PDZ; [1]) was 77.6 µM and the Kd (DLG3_2 PDZ; [1]) was 3.24 µM. The Kd (ARHGEF12 PDZ; [1]) was 87.1 µM, the Kd (MAGI2_4 PDZ; [1]) was 45.7 µM and the Kd (SYNJ2BP PDZ; [1]) was 2.04 µM. For the same compound, the Kd (SNTA1 PDZ; [1]) was 14.1 µM, the Kd (SNTG2 PDZ; [1]) was 112 µM and the Kd (DLG1_3 PDZ; [1]) was 17 µM. It also gave a Kd (DLG3_1 PDZ; [1]) of 35.5 µM, a Kd (LAP2 PDZ; [1]) of 204 µM and a Kd (SNTG1 PDZ; [1]) of 49 µM. It also gave a Kd (DLG1_1 PDZ; [1]) of 9.55 µM, a Kd (MAGI2_2 PDZ; [1]) of 11.7 µM and a Kd (SCRIB_1 PDZ; [1]) of 27.5 µM. For the same compound, the Kd (SNX27 PDZ) was 21.9 µM, the Kd (PTPN3 PDZ; [1]) was 11.7 µM and the Kd (NOS1 PDZ; [1]) was 182 µM. For the same compound, the Kd (NHERF3_1 PDZ; [1]) was 91.2 µM and the Kd (DLG2_2 PDZ; [1]) was 5.37 µM.
Compound SRRPRTETQV [HPV31-E6] has a Kd (DLG1_2 PDZ; [1]) of 1.62 µM, a Kd (LIN7C PDZ; [1]) of 117 µM and a Kd (DLG3_3 PDZ; [1]) of 7.94 µM. For the same compound, the Kd (DLG4_2 PDZ; [1]) was 4.37 µM, the Kd (SCRIB2 PDZ; [1]) was 41.7 µM and the Kd (TX1BP3 PDZ; [1]) was 24.5 µM. For the same compound, the Kd (MAGI2_5 PDZ; [1]) was 129 µM, the Kd (ARHGEF11 PDZ; [1]) was 263 µM and the Kd (DLG3_2 PDZ; [1]) was 3.89 µM. For the same compound, the Kd (ARHGEF12 PDZ; [1]) was 138 µM, the Kd (MAGI2_4 PDZ; [1]) was 33.1 µM and the Kd (SYNJ2BP PDZ; [1]) was 3.89 µM. It also gave a Kd (SNTA1 PDZ; [1]) of 51.3 µM, a Kd (SNTG2 PDZ; [1]) of 83.2 µM and a Kd (DLG1_3 PDZ; [1]) of 25.1 µM. For the same compound, the Kd (DLG3_1 PDZ; [1]) was 36.3 µM, the Kd (LAP2 PDZ; [1]) was 126 µM and the Kd (SNTG1 PDZ; [1]) was 58.9 µM. For the same compound, the Kd (DLG1_1 PDZ; [1]) was 6.92 µM, the Kd (MAGI2_2 PDZ; [1]) was 0.417 µM and the Kd (SCRIB_1 PDZ; [1]) was 25.1 µM. It also gave a Kd (SNX27 PDZ) of 22.9 µM, a Kd (PTPN3 PDZ; [1]) of 21.9 µM and a Kd (NOS1 PDZ; [1]) of 123 µM. It also gave a Kd (NHERF3_1 PDZ; [1]) of 47.9 µM and a Kd (DLG2_2 PDZ; [1]) of 4.27 µM.
